Test results reported in ChEMBL document CHEMBL3804823, “Inhibitors of secreted phospholipase A2 suppress the release of PGE2 in renal mesangial cells” (Bioorg Med Chem, 2016).
Active and inactive are the calls of the source. The rule behind the calls is not given here.

Legend:
Format in all cases: cell-based
Rattus norvegicus [1] = organism: Rattus norvegicus; test: Inhibition of secretory phospholipase A2 in rat renal mesangial cells assessed as suppression of IL-1beta/forskolin stimulated PGE2 formation preincubated for 20 mins prior to IL-1beta/forskolin challenge at 1 to 10 uM measured after 24 hrs by PGE2-specific ELISA
Rattus norvegicus [2] = organism: Rattus norvegicus; test: Inhibition of secretory phospholipase A2 in rat renal mesangial cells assessed as suppression of IL-1beta/forskolin stimulated PGE2 formation preincubated for 20 mins prior to IL-1beta/forskolin challenge at 10 uM measured after 24 hrs by PGE2-specific ELISA
Rattus norvegicus [3] = organism: Rattus norvegicus; test: Inhibition of secretory phospholipase A2 in rat renal mesangial cells assessed as suppression of IL-1beta/forskolin stimulated PGE2 formation preincubated for 20 mins prior to IL-1beta/forskolin challenge at 1 uM measured after 24 hrs by PGE2-specific ELISA
Rattus norvegicus [4] = organism: Rattus norvegicus; test: Inhibition of secretory phospholipase A2 in rat renal mesangial cells assessed as suppression of IL-1beta/forskolin stimulated PGE2 formation preincubated for 20 mins prior to IL-1beta/forskolin challenge at 3 and 10 uM measured after 24 hrs by PGE2-specific ELISA

CC(C)[C@H](NC(=O)C(=O)CCCCc1ccc2ccccc2c1)C(=O)O
inhibition (Rattus norvegicus [1]): Active

CCCCCCCCCCCCCCC(=O)C(=O)N[C@@H](CCCC)CCCC(=O)O
inhibition (Rattus norvegicus [2]): inactive

CCCC[C@H](CCC(=O)O)NC(=O)CCCCNC(=O)c1ccccc1
inhibition (Rattus norvegicus [3]): inactive
inhibition (Rattus norvegicus [4]): Active

CCCC[C@H](CCC(=O)O)NC(=O)CCCCCCc1ccccc1
inhibition (Rattus norvegicus [1]): Active

CC(C)[C@H](NC(=O)C(=O)c1ccc2ccccc2c1)C(=O)O
inhibition (Rattus norvegicus [3]): inactive
inhibition (Rattus norvegicus [4]): Active

O=C(O)CC[C@@H](Cc1ccc(OCc2ccccc2)cc1)NC(=O)CCCCCCc1ccccc1
inhibition (Rattus norvegicus [1]): Active

CCCC[C@H](CCC(=O)O)NC(=O)CCCCNC(=O)c1ccc(OC)cc1
inhibition (Rattus norvegicus [1]): Active

CCCC[C@H](CCC(=O)O)NC(=O)CCCCCOc1ccccc1
inhibition (Rattus norvegicus [3]): inactive
inhibition (Rattus norvegicus [4]): Active

O=C(CCCCc1ccccc1)C(F)(F)C(F)(F)F
inhibition (Rattus norvegicus [2]): inactive

CCCCCCCCCCCCCCCCC(=O)C(=O)N[C@H](C(=O)O)C(C)C
inhibition (Rattus norvegicus [1]): Active

CCCC[C@H](CCC(=O)O)NC(=O)CCCC(=O)NCc1ccccc1
inhibition (Rattus norvegicus [1]): Active

CCCCCCCCCCCCCCC(=O)C(=O)NCCCC(=O)OCC
inhibition (Rattus norvegicus [2]): inactive

CCCC[C@H](CCC(=O)O)NC(=O)CCCCC(=O)Nc1ccccc1
inhibition (Rattus norvegicus [3]): inactive
inhibition (Rattus norvegicus [4]): Active

CC(C)[C@H](NC(=O)C(=O)CCCCc1ccccc1)C(=O)O
inhibition (Rattus norvegicus [1]): Active

CCCCCCCCCCCCCCC(=O)C(=O)N[C@@H](CC(C)C)C(=O)O
inhibition (Rattus norvegicus [1]): Active
